Data published in PMC6353796, “Thermostable Branched-Chain Amino Acid Transaminases From the Archaea Geoglobus acetivorans and Archaeoglobus fulgidus: Biochemical and Structural Characterization” (Frontiers in Bioengineering and Biotechnology, 2019).

Tests used:
Type in all cases: binding
GEO1900 [1] = target: T1, GEO1900 (Geoglobus acetivorans, UniProt A0A0A7GJ30); experiment: X-ray crystal structure, […] Å, soak; conditions: 50 mM AKG soak; unproductive complex with holoenzyme; active site of subunit A only
T1 construct: gene ilvE; mainly homodimer in solution, hexamer in crystal; catalytic Lys152
T1 sequence (A0A0A7GJ30 entry or part of it): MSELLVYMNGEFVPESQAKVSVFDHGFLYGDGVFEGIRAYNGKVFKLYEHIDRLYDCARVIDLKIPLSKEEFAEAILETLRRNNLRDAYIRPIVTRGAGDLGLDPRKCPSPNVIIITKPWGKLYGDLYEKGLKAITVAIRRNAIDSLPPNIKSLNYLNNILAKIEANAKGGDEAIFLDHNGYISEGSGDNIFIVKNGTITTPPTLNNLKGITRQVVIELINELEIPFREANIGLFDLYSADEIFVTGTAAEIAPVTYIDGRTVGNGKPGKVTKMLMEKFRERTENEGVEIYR

GEO1900 [2] = target: T1, GEO1900; experiment: X-ray crystal structure, […] Å; conditions: covalent internal aldimine with Lys152
AF0933 [3] = target: T2, AF0933 (Archaeoglobus fulgidus, UniProt O29329); experiment: X-ray crystal structure, […] Å; conditions: covalent internal aldimine with Lys150
T2 construct: gene ilvE; His-tagged (pLATE51, E. coli Rosetta (DE3)-pLysS); homohexamer in solution; catalytic Lys150
T2 sequence (O29329 1-290): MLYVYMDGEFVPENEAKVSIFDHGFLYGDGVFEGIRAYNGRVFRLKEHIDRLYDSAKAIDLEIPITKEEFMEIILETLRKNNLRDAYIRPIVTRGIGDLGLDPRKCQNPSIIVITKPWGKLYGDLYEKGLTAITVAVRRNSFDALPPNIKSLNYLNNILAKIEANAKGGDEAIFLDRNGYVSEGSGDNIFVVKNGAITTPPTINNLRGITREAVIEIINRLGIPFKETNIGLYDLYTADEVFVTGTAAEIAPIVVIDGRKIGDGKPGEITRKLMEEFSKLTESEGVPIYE

AF0933 [4] = target: T2, AF0933; experiment: X-ray crystal structure, […] Å, co-crystallization; conditions: 5 mM gabaculine; covalent adduct with PLP, irreversible; partial occupancy, absent in subunit F

O=C(O)CCC(=O)C(=O)O [α-ketoglutarate]
X-ray crystal structure, 2.2 Å, soak (GEO1900 [1]): GEO1900 complexed with AKG 5E25

Cc1ncc(COP(=O)(O)O)c(C=O)c1O [pyridoxal 5′-phosphate]
X-ray crystal structure, 1.9 Å (GEO1900 [2]): A PLP molecule is covalently bound to the catalytic Lys152 in the GEO1900 active site | X-ray crystal structure, 2.1 Å (AF0933 [3]): A PLP molecule is covalently bound to the catalytic Lys152 in the GEO1900 active site (Lys150

N[C@@H]1C=CC=C(C(=O)O)C1 [gabaculine]
X-ray crystal structure, 2.0 Å, co-crystallization (AF0933 [4]): AF0933 complexed with gabaculine 5MR0
